# Test results as given in PubChem BioAssay AID248 (DTP/NCI, 2004).
# Where “and” joins values, the source holds several entries; their conditions need not be identical. Equal entries are not always repeated. Toxic doses and inconclusive results are not listed.
# System: L1210 leukemia ip in BDF1 mice, survival T/C
# Assay: NCI In Vivo Anticancer Drug Screen. Data for tumor model L1210 Leukemia (intraperitoneal) in B6D2F1 (BDF1) mice
# Conditions: endpoint: mean survival time, higher = longer survival
# Procedure, shortened: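 Survival endpoint. Drug-treated group vs vehicle group, expressed as T divided by C. Tumor passaged by transplantation.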
# [1] = dose: 100.0 mg/kg/injection, schedule: Q04DX003 (ip), vehicle: saline
# [2] = dose: 200.0 mg/kg/injection, schedule: Q04DX003 (ip), vehicle: saline
# [3] = dose: 100.0 mg/kg/injection, schedule: Q04DX003 (ip), vehicle: Klucel (hydroxypropylcellulose) (HPC)
# [4] = dose: 200.0 mg/kg/injection, schedule: Q04DX003 (ip), vehicle: Klucel (hydroxypropylcellulose) (HPC)
# [5] = dose: 400.0 mg/kg/injection, schedule: Q04DX003 (ip), vehicle: Klucel (hydroxypropylcellulose) (HPC)
# [6] = dose: 100.0 mg/kg/injection, schedule: Q01DX009 (ip), vehicle: acetone
# [7] = dose: 100.0 mg/kg/injection, schedule: Q01DX009 (ip), vehicle: Klucel (hydroxypropylcellulose) (HPC)
# [8] = dose: 200.0 mg/kg/injection, schedule: Q01DX009 (ip), vehicle: Klucel (hydroxypropylcellulose) (HPC)
# [9] = dose: 400.0 mg/kg/injection, schedule: Q01DX009 (ip), vehicle: Klucel (hydroxypropylcellulose) (HPC)
# [10] = dose: 12.5 mg/kg/injection, schedule: Q04DX003 (ip), vehicle: Klucel (hydroxypropylcellulose) (HPC)
# [11] = dose: 25.0 mg/kg/injection, schedule: Q04DX003 (ip), vehicle: Klucel (hydroxypropylcellulose) (HPC)
# [12] = dose: 50.0 mg/kg/injection, schedule: Q04DX003 (ip), vehicle: Klucel (hydroxypropylcellulose) (HPC)
# [13] = dose: 100.0 mg/kg/injection, schedule: Q04DX003 (ip), vehicle: saline with Tween-80
# [14] = dose: 100.0 mg/kg/injection, schedule: Q01DX001 (ip), vehicle: other
# [15] = dose: 200.0 mg/kg/injection, schedule: Q01DX001 (ip), vehicle: other
# [16] = dose: 400.0 mg/kg/injection, schedule: Q01DX001 (ip), vehicle: other
smiles,measurement,setting,value
CCN(CC)C(=O)Cn1ccc(N)nc1=O,T/C,"dose: 100.0 mg/kg/injection, schedule: Q01DX009 (ip), vehicle: saline",115 % of control
same,T/C,[1],100 % of control
same,T/C,"dose: 200.0 mg/kg/injection, schedule: Q01DX009 (ip), vehicle: saline",98 % of control
same,T/C,[2],100 % of control
same,T/C,"dose: 400.0 mg/kg/injection, schedule: Q01DX009 (ip), vehicle: saline",97 % of control
same,T/C,"dose: 400.0 mg/kg/injection, schedule: Q04DX003 (ip), vehicle: saline",102 % of control
Oc1ccc(C(c2ccc(O)c(Br)c2)c2ccccn2)cc1Br,T/C,[3],100 % of control
same,T/C,[4],98 % of control
same,T/C,[5],96 % of control
CC(=O)CCC(=O)NC(C)C,T/C,"dose: 100.0 mg/kg/injection, schedule: Q04DX002 (ip), vehicle: saline with Tween-80",102 % of control
same,T/C,"dose: 200.0 mg/kg/injection, schedule: Q04DX002 (ip), vehicle: saline with Tween-80",102 % of control
same,T/C,"dose: 400.0 mg/kg/injection, schedule: Q04DX002 (ip), vehicle: saline with Tween-80",117 % of control
CC(N)(C(=O)O)c1ccccc1 (stereo unspecified),T/C,"dose: 50.0 mg/kg/injection, schedule: Q04DX003 (ip), vehicle: saline",96 % of control
same,T/C,[1],89 % of control
same,T/C,[2],102 % of control
Cc1cc2c(cc1C)N(C(=O)CN1CCOCC1)CC(=O)N2,T/C,"dose: 50.0 mg/kg/injection, schedule: Q01DX009 (ip), vehicle: acetone",95 % of control
same,T/C,[6],88 % of control
same,T/C,"dose: 100.0 mg/kg/injection, schedule: Q04DX003 (ip), vehicle: acetone",98 % of control
same,T/C,"dose: 200.0 mg/kg/injection, schedule: Q01DX009 (ip), vehicle: acetone",95 % of control
same,T/C,"dose: 200.0 mg/kg/injection, schedule: Q04DX003 (ip), vehicle: acetone",97 % of control
same,T/C,"dose: 400.0 mg/kg/injection, schedule: Q04DX003 (ip), vehicle: acetone",92 % of control
NCC(c1ccccc1)C(Cc1ccccc1)[N+](=O)[O-] (stereo unspecified),T/C,"dose: 75.0 mg/kg/injection, schedule: Q01DX001 (ip), vehicle: other",115 % of control
same,T/C,"dose: 150.0 mg/kg/injection, schedule: Q01DX001 (ip), vehicle: other",104 % of control
C/C=C/C1OCCO1,T/C,[6],92 % of control
O=C(O)/C(=C\CCCC/C=C(\CCO)C(=O)O)CCO,T/C,[7],102 % of control
same,T/C,[3],94 % of control
same,T/C,[8],99 % of control
same,T/C,[4],102 % of control
same,T/C,[9],102 % of control
same,T/C,[5],96 % of control
O=S(=O)(O)CS(=O)(=O)O,T/C,"dose: 5.0 mg/kg/injection, schedule: Q01DX001 (ip), vehicle: saline",101 % of control
same,T/C,"dose: 10.0 mg/kg/injection, schedule: Q01DX001 (ip), vehicle: saline",100 % of control
same,T/C,"dose: 20.0 mg/kg/injection, schedule: Q01DX001 (ip), vehicle: saline",97 % of control
same,T/C,"dose: 40.0 mg/kg/injection, schedule: Q01DX001 (ip), vehicle: saline",101 % of control
CC[C@@](O)(C(=O)NC)c1cc2n(c(=O)c1CO)Cc1cc3ccccc3nc1-2,T/C,"dose: 2.3 mg/kg/injection, schedule: Q01DX015 (ip), vehicle: saline",155 % of control
same,T/C,"dose: 3.5 mg/kg/injection, schedule: Q01DX015 (ip), vehicle: saline",172 % of control
same,T/C,"dose: 4.0 mg/kg/injection, schedule: Q01DX001 (ip), vehicle: saline",110 % of control
same,T/C,"dose: 5.3 mg/kg/injection, schedule: Q01DX015 (ip), vehicle: saline",102 % of control
CN(C)CCCNc1c2ccc(Cl)cc2nc2ccc(O)cc12,T/C,"dose: 12.5 mg/kg/injection, schedule: Q04DX002 (ip), vehicle: saline",107 % of control
same,T/C,"dose: 25.0 mg/kg/injection, schedule: Q04DX002 (ip), vehicle: saline",115 % of control
CC(C)=C1C2C=CC1C1C(=O)OC(=O)C21 (stereo unspecified),T/C,[10],107 % of control
same,T/C,"dose: 25.0 mg/kg/injection, schedule: Q01DX009 (ip), vehicle: Klucel (hydroxypropylcellulose) (HPC)",98 % of control
same,T/C,[11],96 % of control
same,T/C,"dose: 50.0 mg/kg/injection, schedule: Q01DX009 (ip), vehicle: Klucel (hydroxypropylcellulose) (HPC)",95 % of control
same,T/C,[12],103 % of control
same,T/C,"dose: 100.0 mg/kg/injection, schedule: Q01DX001 (ip), vehicle: Klucel (hydroxypropylcellulose) (HPC)",94 % of control
same,T/C,[3],100 % of control
O=C(O)c1ccccc1NCc1cc(=O)[nH]c(=O)[nH]1,T/C,[13],101 % of control
same,T/C,"dose: 200.0 mg/kg/injection, schedule: Q04DX003 (ip), vehicle: saline with Tween-80",98 % of control
same,T/C,"dose: 400.0 mg/kg/injection, schedule: Q04DX003 (ip), vehicle: saline with Tween-80",95 % of control
Nc1ccc(N=Nc2cc(Cl)ccc2Cl)c(N)n1,T/C,"dose: 50.0 mg/kg/injection, schedule: Q01DX001 (ip), vehicle: other",103 % of control
same,T/C,[14],86 % of control
same,T/C,[15],92 % of control
same,T/C,[16],92 % of control
CCS(=O)(=O)CS(=O)(=O)Cc1ccccc1,T/C,"dose: 75.0 mg/kg/injection, schedule: Q04DX003 (ip), vehicle: saline",94 % of control
same,T/C,"dose: 150.0 mg/kg/injection, schedule: Q04DX003 (ip), vehicle: saline",95 % of control
same,T/C,"dose: 300.0 mg/kg/injection, schedule: Q04DX003 (ip), vehicle: saline",95 % of control
Cc1ccc(C(=O)C(=O)c2ccccc2)c(C)c1,T/C,"dose: 100.0 mg/kg/injection, schedule: Q01DX001 (ip), vehicle: saline",107 % of control
same,T/C,"dose: 200.0 mg/kg/injection, schedule: Q01DX001 (ip), vehicle: saline",102 % of control
same,T/C,"dose: 400.0 mg/kg/injection, schedule: Q01DX001 (ip), vehicle: saline",96 % of control
OCCC(c1ccccc1)(c1ccccc1)c1ccccc1,T/C,"dose: 6.25 mg/kg/injection, schedule: Q04DX003 (ip), vehicle: saline with Tween-80",98 % of control
same,T/C,"dose: 12.5 mg/kg/injection, schedule: Q04DX003 (ip), vehicle: saline with Tween-80",100 % of control
same,T/C,"dose: 25.0 mg/kg/injection, schedule: Q04DX003 (ip), vehicle: saline with Tween-80",89 % of control and 91 % of control
same,T/C,[13],90 % of control
CCNC(=O)SCCSC(=O)NCC,T/C,"dose: 100.0 mg/kg/injection, schedule: Q01DX009 (ip), vehicle: other",92 % of control
same,T/C,"dose: 200.0 mg/kg/injection, schedule: Q01DX009 (ip), vehicle: other",93 % of control
same,T/C,"dose: 400.0 mg/kg/injection, schedule: Q01DX009 (ip), vehicle: other",92 % of control
O=C(O)/C=C/C(=O)Nc1ccccc1,T/C,[7],90 % of control
same,T/C,[3],93 % of control
same,T/C,[8],97 % of control
same,T/C,[4],95 % of control
same,T/C,[9],100 % of control
same,T/C,[5],95 % of control
Cc1nnc(NC(=O)C(Cl)Cl)s1,T/C,[14],96 % of control
same,T/C,[7],96 % of control
same,T/C,"dose: 100.0 mg/kg/injection, schedule: Q04DX003 (ip), vehicle: other",95 % of control
same,T/C,[15],98 % of control
same,T/C,[8],90 % of control
same,T/C,"dose: 200.0 mg/kg/injection, schedule: Q04DX003 (ip), vehicle: other",96 % of control
same,T/C,[16],101 % of control
same,T/C,[9],93 % of control
same,T/C,"dose: 400.0 mg/kg/injection, schedule: Q04DX003 (ip), vehicle: other",87 % of control
O=C(Nc1ccc(Cl)cc1)N1CC1,T/C,[10],92 % of control
same,T/C,[11],94 % of control
same,T/C,[12],98 % of control
c1ccc(C2=NOC(c3ccccc3)C2)cc1 (stereo unspecified),T/C,"dose: 75.0 mg/kg/injection, schedule: Q01DX009 (ip), vehicle: Klucel (hydroxypropylcellulose) (HPC)",105 % of control
same,T/C,"dose: 75.0 mg/kg/injection, schedule: Q04DX003 (ip), vehicle: Klucel (hydroxypropylcellulose) (HPC)",95 % of control
same,T/C,"dose: 150.0 mg/kg/injection, schedule: Q01DX009 (ip), vehicle: Klucel (hydroxypropylcellulose) (HPC)",105 % of control
same,T/C,"dose: 150.0 mg/kg/injection, schedule: Q04DX003 (ip), vehicle: Klucel (hydroxypropylcellulose) (HPC)",100 % of control
same,T/C,"dose: 300.0 mg/kg/injection, schedule: Q01DX009 (ip), vehicle: Klucel (hydroxypropylcellulose) (HPC)",100 % of control
same,T/C,"dose: 300.0 mg/kg/injection, schedule: Q04DX003 (ip), vehicle: Klucel (hydroxypropylcellulose) (HPC)",95 % of control
